Measurements published in the supplement of paper PMC10307832.

How the values were obtained:
Assay in all cases: relative viability (nuclei count vs DMSO), 5 days (fraction); higher = more cells survive
NCI-H1975 = tested on: NCI-H1975
How it was run: (§1)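 After 5 days of treatment, lung cancer cells in 1536-well plates were fixed and stained in a single step (final 0.05% Triton X-100, 1% formaldehyde, 1 ug/ml Hoechst) and their nuclei counted on 4× images. Treatment had been applied by pin tool the day after seeding as one drug alone or as a fixed anchor-drug dose with five library-drug doses (not always all listed) in √10 steps. Relative viability is the nuclei count of treated wells divided by that of vehicle wells, and values are medians of duplicate plates.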

NCI-H322M = tested on: NCI-H322M
How it was run: as §1

NCI-H1437 = tested on: NCI-H1437
How it was run: as §1

NCI-H522 = tested on: NCI-H522
How it was run: as §1

LCLC-97TM1 = tested on: LCLC-97TM1
How it was run: as §1

NCI-H441 = tested on: NCI-H441
How it was run: as §1

NCI-H647 = tested on: NCI-H647
How it was run: as §1

NCI-H2342 = tested on: NCI-H2342
How it was run: as §1

NCI-H1915 = tested on: NCI-H1915
How it was run: as §1

NCI-H358 = tested on: NCI-H358
How it was run: as §1

NCI-H23 = tested on: NCI-H23
How it was run: as §1

NCI-H838 = tested on: NCI-H838
How it was run: as §1

`CCNC(=O)c1noc(-c2cc(C(C)C)c(O)cc2O)c1-c1ccc(CN2CCOCC2)cc1` [Luminespib] + Nc1ncn([C@H]2C[C@H](O)[C@@H](CO)O2)c(=O)n1 [Decitabine] (partner 2 µM) was tested, and the relative viability (NCI-H1975; first compound 0.002 µM) was 0.393, the relative viability (NCI-H1975; first compound 0.006325 µM) was 0.346 and the relative viability (NCI-H1975; first compound 0.02 µM) was 0.355. For the same compound, the relative viability (NCI-H1975; first compound 0.06325 µM) was 0.127, the relative viability (NCI-H1975; first compound 0.2 µM) was 0.144 and the relative viability (NCI-H322M; first compound 0.002 µM) was 0.681. It also gave a relative viability (NCI-H322M; first compound 0.006325 µM) of 0.624, a relative viability (NCI-H322M; first compound 0.02 µM) of 0.711 and a relative viability (NCI-H322M; first compound 0.06325 µM) of 0.509. The relative viability (NCI-H322M; first compound 0.2 µM) was 0.499, the relative viability (NCI-H1437; first compound 0.002 µM) was 0.606 and the relative viability (NCI-H1437; first compound 0.006325 µM) was 0.605. It also gave a relative viability (NCI-H1437; first compound 0.02 µM) of 0.64, a relative viability (NCI-H1437; first compound 0.06325 µM) of 0.428 and a relative viability (NCI-H1437; first compound 0.2 µM) of 0.229. For the same compound, the relative viability (NCI-H522; first compound 0.002 µM) was 0.626, the relative viability (NCI-H522; first compound 0.006325 µM) was 0.631 and the relative viability (NCI-H522; first compound 0.02 µM) was 0.593. It also gave a relative viability (NCI-H522; first compound 0.06325 µM) of 0.6, a relative viability (NCI-H522; first compound 0.2 µM) of 0.451 and a relative viability (LCLC-97TM1; first compound 0.002 µM) of 0.249. It also gave a relative viability (LCLC-97TM1; first compound 0.006325 µM) of 0.258, a relative viability (LCLC-97TM1; first compound 0.06325 µM) of 0.233 and a relative viability (LCLC-97TM1; first compound 0.2 µM) of 0.154. It also gave a relative viability (NCI-H441; first compound 0.002 µM) of 0.255, a relative viability (NCI-H441; first compound 0.006325 µM) of 0.26 and a relative viability (NCI-H441; first compound 0.02 µM) of 0.184. It also gave a relative viability (NCI-H441; first compound 0.06325 µM) of 0.155, a relative viability (NCI-H441; first compound 0.2 µM) of 0.134 and a relative viability (NCI-H647; first compound 0.002 µM) of 0.391. The relative viability (NCI-H647; first compound 0.006325 µM) was 0.484, the relative viability (NCI-H647; first compound 0.02 µM) was 0.18 and the relative viability (NCI-H647; first compound 0.06325 µM) was 0.0995. The relative viability (NCI-H647; first compound 0.2 µM) was 0.124, the relative viability (NCI-H2342; first compound 0.002 µM) was 0.648 and the relative viability (NCI-H2342; first compound 0.006325 µM) was 0.82. For the same compound, the relative viability (NCI-H2342; first compound 0.02 µM) was 0.546, the relative viability (NCI-H2342; first compound 0.06325 µM) was 0.821 and the relative viability (NCI-H2342; first compound 0.2 µM) was 0.503. It also gave a relative viability (NCI-H1915; first compound 0.002 µM) of 0.258, a relative viability (NCI-H1915; first compound 0.006325 µM) of 0.278 and a relative viability (NCI-H1915; first compound 0.02 µM) of 0.254. It also gave a relative viability (NCI-H1915; first compound 0.06325 µM) of 0.24, a relative viability (NCI-H1915; first compound 0.2 µM) of 0.21 and a relative viability (NCI-H358; first compound 0.002 µM) of 0.217. For the same compound, the relative viability (NCI-H358; first compound 0.006325 µM) was 0.217, the relative viability (NCI-H358; first compound 0.02 µM) was 0.178 and the relative viability (NCI-H358; first compound 0.06325 µM) was 0.0688. It also gave a relative viability (NCI-H358; first compound 0.2 µM) of 0.0584, a relative viability (NCI-H23; first compound 0.002 µM) of 0.285 and a relative viability (NCI-H23; first compound 0.006325 µM) of 0.346. The relative viability (NCI-H23; first compound 0.02 µM) was 0.265, the relative viability (NCI-H23; first compound 0.06325 µM) was 0.164 and the relative viability (NCI-H23; first compound 0.2 µM) was 0.164. It also gave a relative viability (NCI-H838; first compound 0.002 µM) of 0.495, a relative viability (NCI-H838; first compound 0.006325 µM) of 0.491 and a relative viability (NCI-H838; first compound 0.02 µM) of 0.422.
